In patent US20210395650A1, “COMPOUNDS STABILIZING HYDROLASES IN LIQUIDS” (BASF SE, priority 2018, published 2021):
Where a name gives a salt, the structure may show the parent alone.

Target: T1, Savinase® 16.0L (Lederbergia lenta, UniProt P29600)
T1 construct: purchased Sigma-Aldrich
T1 sequence (P29600 1-269): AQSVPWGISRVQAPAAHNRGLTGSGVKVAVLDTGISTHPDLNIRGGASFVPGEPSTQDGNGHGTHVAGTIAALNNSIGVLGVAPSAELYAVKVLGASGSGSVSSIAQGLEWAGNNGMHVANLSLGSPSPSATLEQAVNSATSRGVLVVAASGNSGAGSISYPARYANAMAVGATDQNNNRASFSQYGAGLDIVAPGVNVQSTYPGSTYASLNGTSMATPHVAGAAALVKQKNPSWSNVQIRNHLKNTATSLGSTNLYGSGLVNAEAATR
Assay: Protease storage stability in liquid formulations at 37° C. (Suc-AAPF-pNA assay)
Format: biochemical
Conditions: 0.7 wt% Savinase 16.0 L
Procedure: The storage stability of protease was assessed at 37° C.
Base test formulations were manufactured by making base formulations I to V by mixing the components according to Table 1.
Protease used: Savinase® 16.0L (CAS-No. 9014-01-1, EC-No. 232-752-2) was purchased from Sigma-Aldrich.
The respective component (a) or comparative compound was added, if applicable, to the respective base formulation in amounts as indicated in Table 1.
The amount of protease as provided in Table 1 refers to active protein.
Water was added to accomplish the balance to 100.
Savinase activity at certain points in time as indicated in Table 2 was be determined by employing Succinyl-Ala-Ala-Pro-Phe-p-nitroanilide (Suc-AAPF-pNA, short AAPF) as substrate. pNA is cleaved from the substrate molecule by proteolytic cleavage, resulting in release of yellow color of free pNA which was determined by measuring OD405. Measurements were done at 20° C.
The proteolytic activity values provided in Table 3 were calculated referring to the 100% value determined in the reference formulation at the time 0.
The nomenclature of formulations is as follows: the Roman number before the full stop characterizes the base formulation, the Arabian number the type of compound (A. # compound according to invention (component (a)); (B. #) comparative compound).

[1] = base formulation I, 2.5 wt% compound, 3 d
[2] = base formulation I, 2.5 wt% compound, 7 d
[3] = base formulation I, 2.5 wt% compound, 14 d
[4] = base formulation I, 2.5 wt% compound, 21 d
[5] = base formulation I, 2.5 wt% compound, 28 d
[6] = base formulation I, 2.5 wt% compound, 35 d
[7] = base formulation III, 2.0 wt% compound, 3 d
[8] = base formulation III, 2.0 wt% compound, 7 d
[9] = base formulation III, 2.0 wt% compound, 14 d
[10] = base formulation III, 2.0 wt% compound, 21 d
[11] = base formulation III, 2.0 wt% compound, 28 d
[12] = base formulation III, 2.0 wt% compound, 35 d
[13] = base formulation II, 2.5 wt% compound, 3 d
[14] = base formulation II, 2.5 wt% compound, 7 d
[15] = base formulation II, 2.5 wt% compound, 14 d
[16] = base formulation II, 2.5 wt% compound, 21 d
[17] = base formulation II, 2.5 wt% compound, 28 d
[18] = base formulation II, 2.5 wt% compound, 35 d

O=C(O)CC(O)(CC(=O)O)C(=O)O [B.1, citric acid, reference compound]
protease activity in the course of time of storage at 37° C. [1]: 94% | protease activity in the course of time of storage at 37° C. [2]: 86% | protease activity in the course of time of storage at 37° C. [3]: 76% | protease activity in the course of time of storage at 37° C. [4]: 67% | protease activity in the course of time of storage at 37° C. [5]: 62% | protease activity in the course of time of storage at 37° C. [6]: 57% | protease activity in the course of time of storage at 37° C. [7]: 92% | protease activity in the course of time of storage at 37° C. [8]: 84% | protease activity in the course of time of storage at 37° C. [9]: 75% | protease activity in the course of time of storage at 37° C. [10]: 65% | protease activity in the course of time of storage at 37° C. [11]: 60% | protease activity in the course of time of storage at 37° C. [12]: 53% | protease activity in the course of time of storage at 37° C. (base formulation V, 2.0 wt% compound, 3 d): 93% | protease activity in the course of time of storage at 37° C. (base formulation V, 2.0 wt% compound, 7 d): 86% | protease activity in the course of time of storage at 37° C. (base formulation V, 2.0 wt% compound, 14 d): 75% | protease activity in the course of time of storage at 37° C. (base formulation V, 2.0 wt% compound, 21 d): 65% | protease activity in the course of time of storage at 37° C. (base formulation V, 2.0 wt% compound, 28 d): 57% | protease activity in the course of time of storage at 37° C. (base formulation V, 2.0 wt% compound, 35 d): 50%

O=C(O)CC(O)(CC(=O)O)C(=O)O [B.2, citric acid trisodium salt, reference compound]
protease activity in the course of time of storage at 37° C. (base formulation I, 2.5 wt% compound, 3 d, trisodium salt): 95% | protease activity in the course of time of storage at 37° C. (base formulation I, 2.5 wt% compound, 7 d, trisodium salt): 84% | protease activity in the course of time of storage at 37° C. (base formulation I, 2.5 wt% compound, 14 d, trisodium salt): 68% | protease activity in the course of time of storage at 37° C. (base formulation I, 2.5 wt% compound, 21 d, trisodium salt): 64% | protease activity in the course of time of storage at 37° C. (base formulation I, 2.5 wt% compound, 28 d, trisodium salt): 59% | protease activity in the course of time of storage at 37° C. (base formulation I, 2.5 wt% compound, 35 d, trisodium salt): 55% | protease activity in the course of time of storage at 37° C. [13]: 95% | protease activity in the course of time of storage at 37° C. [14]: 82% | protease activity in the course of time of storage at 37° C. [15]: 75% | protease activity in the course of time of storage at 37° C. [16]: 66% | protease activity in the course of time of storage at 37° C. [17]: 63% | protease activity in the course of time of storage at 37° C. [18]: 60% | protease activity in the course of time of storage at 37° C. (base formulation III, 2.0 wt% compound, 3 d, trisodium salt): 93% | protease activity in the course of time of storage at 37° C. (base formulation III, 2.0 wt% compound, 7 d, trisodium salt): 83% | protease activity in the course of time of storage at 37° C. (base formulation III, 2.0 wt% compound, 14 d, trisodium salt): 73% | protease activity in the course of time of storage at 37° C. (base formulation III, 2.0 wt% compound, 21 d, trisodium salt): 62% | protease activity in the course of time of storage at 37° C. (base formulation III, 2.0 wt% compound, 28 d, trisodium salt): 57% | protease activity in the course of time of storage at 37° C. (base formulation III, 2.0 wt% compound, 35 d, trisodium salt): 50% | protease activity in the course of time of storage at 37° C. (base formulation IV, 2.0 wt% compound, 3 d): 91% | protease activity in the course of time of storage at 37° C. (base formulation IV, 2.0 wt% compound, 7 d): 86% | protease activity in the course of time of storage at 37° C. (base formulation IV, 2.0 wt% compound, 14 d): 70% | protease activity in the course of time of storage at 37° C. (base formulation IV, 2.0 wt% compound, 21 d): 64% | protease activity in the course of time of storage at 37° C. (base formulation IV, 2.0 wt% compound, 28 d): 58% | protease activity in the course of time of storage at 37° C. (base formulation IV, 2.0 wt% compound, 35 d): 52%

CCOC(=O)C(=O)OCC [B.3, diethyloxalate, reference compound]
protease activity in the course of time of storage at 37° C. [1]: 90% | protease activity in the course of time of storage at 37° C. [2]: 86% | protease activity in the course of time of storage at 37° C. [3]: 70% | protease activity in the course of time of storage at 37° C. [4]: 65% | protease activity in the course of time of storage at 37° C. [5]: 62% | protease activity in the course of time of storage at 37° C. [6]: 58% | protease activity in the course of time of storage at 37° C. [7]: 92% | protease activity in the course of time of storage at 37° C. [8]: 85% | protease activity in the course of time of storage at 37° C. [9]: 74% | protease activity in the course of time of storage at 37° C. [10]: 60% | protease activity in the course of time of storage at 37° C. [11]: 55% | protease activity in the course of time of storage at 37° C. [12]: 51%

CC(=O)OCC(COC(C)=O)OC(C)=O [B.4, glyceroltriacetate, reference compound]
protease activity in the course of time of storage at 37° C. [1]: 91% | protease activity in the course of time of storage at 37° C. [2]: 84% | protease activity in the course of time of storage at 37° C. [3]: 70% | protease activity in the course of time of storage at 37° C. [4]: 66% | protease activity in the course of time of storage at 37° C. [5]: 61% | protease activity in the course of time of storage at 37° C. [6]: 56% | protease activity in the course of time of storage at 37° C. [13]: 87% | protease activity in the course of time of storage at 37° C. [14]: 80% | protease activity in the course of time of storage at 37° C. [15]: 73% | protease activity in the course of time of storage at 37° C. [16]: 58% | protease activity in the course of time of storage at 37° C. [17]: 57% | protease activity in the course of time of storage at 37° C. [18]: 54%

Diethylcitrate [A.7]
protease activity in the course of time of storage at 37° C. [1]: 95% | protease activity in the course of time of storage at 37° C. [2]: 91% | protease activity in the course of time of storage at 37° C. [3]: 85% | protease activity in the course of time of storage at 37° C. [4]: 81% | protease activity in the course of time of storage at 37° C. [5]: 76% | protease activity in the course of time of storage at 37° C. [6]: 69% | protease activity in the course of time of storage at 37° C. (base formulation I, 2.5 wt% compound, T0): 100% | protease activity in the course of time of storage at 37° C. [13]: 98% | protease activity in the course of time of storage at 37° C. [14]: 96% | protease activity in the course of time of storage at 37° C. [15]: 94% | protease activity in the course of time of storage at 37° C. [16]: 90% | protease activity in the course of time of storage at 37° C. [17]: 87% | protease activity in the course of time of storage at 37° C. [18]: 83% | protease activity in the course of time of storage at 37° C. (base formulation II, 2.5 wt% compound, T0): 98% | protease activity in the course of time of storage at 37° C. [7]: 96% | protease activity in the course of time of storage at 37° C. [8]: 93% | protease activity in the course of time of storage at 37° C. [9]: 84% | protease activity in the course of time of storage at 37° C. [10]: 83% | protease activity in the course of time of storage at 37° C. [11]: 76% | protease activity in the course of time of storage at 37° C. [12]: 72% | protease activity in the course of time of storage at 37° C. (base formulation III, 2.0 wt% compound, T0): 100%
